Test results: PubChem BioAssay AID248 (DTP/NCI, 2004)
“And” between values parts separate entries of the source, which are not always exact repeats. Identical values can stand only once. Toxic doses and inconclusive results are not listed. No stated cut-off is given here; in the data, active means T/C of 150% or more; inactive means T/C below 125%.

Tested on: L1210 leukemia ip in BDF1 mice, survival T/C
Test: NCI In Vivo Anticancer Drug Screen. Data for tumor model L1210 Leukemia (intraperitoneal) in B6D2F1 (BDF1) mice
Details: endpoint: mean survival time, higher = longer survival
Procedure, shortened: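 Read-out is survival time, reported as the treated-group measurement over the vehicle-control measurement.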

[1] = dose: 100.0 mg/kg/injection, schedule: Q01DX009 (ip), vehicle: saline with Tween-80
[2] = dose: 200.0 mg/kg/injection, schedule: Q01DX009 (ip), vehicle: saline with Tween-80

Measured: T/C

COB(OC)C1CCCC1
inactive: dose: 100.0 mg/kg/injection, schedule: Q01DX001 (ip), vehicle: Klucel (hydroxypropylcellulose) (HPC) 92 % of control | dose: 200.0 mg/kg/injection, schedule: Q01DX001 (ip), vehicle: Klucel (hydroxypropylcellulose) (HPC) 95 % of control

O=C(O)COc1ccccc1O
inactive: [1] 101 % of control | [2] 101 % of control

O=C(CCl)OCCI
inactive: dose: 6.25 mg/kg/injection, schedule: Q01DX009 (ip), vehicle: acetone 97 % of control | dose: 12.5 mg/kg/injection, schedule: Q01DX009 (ip), vehicle: acetone 95 % of control | dose: 25.0 mg/kg/injection, schedule: Q01DX009 (ip), vehicle: acetone 90 % of control | dose: 25.0 mg/kg/injection, schedule: Q04DX003 (ip), vehicle: acetone 99 % of control | dose: 35.0 mg/kg/injection, schedule: Q01DX009 (ip), vehicle: acetone 98 % of control | dose: 55.0 mg/kg/injection, schedule: Q01DX009 (ip), vehicle: acetone 90 % of control | dose: 80.0 mg/kg/injection, schedule: Q01DX009 (ip), vehicle: acetone 97 % of control | dose: 100.0 mg/kg/injection, schedule: Q01DX001 (ip), vehicle: acetone 97 % of control

COP(=O)(OC)Oc1c(Cl)c(OP(=O)(OC)OC)c(Cl)c(OP(=O)(OC)OC)c1Cl
inactive: dose: 100.0 mg/kg/injection, schedule: Q04DX002 (ip), vehicle: Klucel (hydroxypropylcellulose) (HPC) 115 % of control | dose: 200.0 mg/kg/injection, schedule: Q04DX002 (ip), vehicle: Klucel (hydroxypropylcellulose) (HPC) 100 % of control | dose: 400.0 mg/kg/injection, schedule: Q04DX002 (ip), vehicle: Klucel (hydroxypropylcellulose) (HPC) 86 % of control

NNC(=O)c1c(C(N)=O)n[nH]c1C1OC(COCc2ccccc2)C(OCc2ccccc2)C1OCc1ccccc1 (configuration not stated)
inactive: dose: 100.0 mg/kg/injection, schedule: Q01DX005 (ip), vehicle: saline 97 % of control and 93 % of control | dose: 200.0 mg/kg/injection, schedule: Q01DX005 (ip), vehicle: saline 100 % of control and 101 % of control

CC1=C(c2ccccc2)C(O)(c2ccccc2)C(C)C1=O (configuration not stated)
inactive: dose: 50.0 mg/kg/injection, schedule: Q01DX009 (ip), vehicle: Klucel (hydroxypropylcellulose) (HPC) 101 % of control | dose: 100.0 mg/kg/injection, schedule: Q01DX009 (ip), vehicle: Klucel (hydroxypropylcellulose) (HPC) 93 % of control | dose: 200.0 mg/kg/injection, schedule: Q01DX009 (ip), vehicle: Klucel (hydroxypropylcellulose) (HPC) 95 % of control

CC1(Br)C(=O)C(O)=C(Br)C1=O (configuration not stated)
inactive: dose: 75.0 mg/kg/injection, schedule: Q01DX001 (ip), vehicle: saline 104 % of control | dose: 150.0 mg/kg/injection, schedule: Q01DX001 (ip), vehicle: saline 106 % of control

CCOC(=O)C1=NN(c2ccccc2)C(=O)C1N=Nc1ccc(S(=O)(=O)Nc2cc(C)nc(C)n2)cc1 (configuration not stated)
inactive: dose: 100.0 mg/kg/injection, schedule: Q01DX001 (ip), vehicle: saline 101 % of control | dose: 200.0 mg/kg/injection, schedule: Q01DX001 (ip), vehicle: saline 102 % of control | dose: 400.0 mg/kg/injection, schedule: Q01DX001 (ip), vehicle: saline 96 % of control

O=C(Nc1ccc(Cc2ccc(NC(=O)Nc3cccc(C4=NCCN4)c3)cc2)cc1)Nc1cccc(C2=NCCN2)c1
inactive: dose: 111.0 mg/kg/injection, schedule: Q01DX Z (ip), vehicle: carboxymethylcellulose (CMC) 101 % of control | dose: 120.0 mg/kg/injection, schedule: Q01DX Z (ip), vehicle: carboxymethylcellulose (CMC) 98 % of control | dose: 166.0 mg/kg/injection, schedule: Q01DX Z (ip), vehicle: carboxymethylcellulose (CMC) 101 % of control | dose: 180.0 mg/kg/injection, schedule: Q01DX Z (ip), vehicle: carboxymethylcellulose (CMC) 98 % of control | dose: 250.0 mg/kg/injection, schedule: Q01DX Z (ip), vehicle: carboxymethylcellulose (CMC) 107 % of control | dose: 270.0 mg/kg/injection, schedule: Q01DX Z (ip), vehicle: carboxymethylcellulose (CMC) 101 % of control | dose: 375.0 mg/kg/injection, schedule: Q01DX Z (ip), vehicle: carboxymethylcellulose (CMC) 107 % of control | dose: 405.0 mg/kg/injection, schedule: Q01DX Z (ip), vehicle: carboxymethylcellulose (CMC) 100 % of control

Cc1cc(Cl)cc([N+](=O)[O-])c1
inactive: [1] 96 % of control | [2] 96 % of control | dose: 400.0 mg/kg/injection, schedule: Q01DX009 (ip), vehicle: saline with Tween-80 95 % of control

CCCCOCCOc1ccc(C(=O)O)cc1
inactive: dose: 100.0 mg/kg/injection, schedule: Q01DX001 (ip), vehicle: other 106 % of control | dose: 100.0 mg/kg/injection, schedule: Q04DX003 (ip), vehicle: saline 87 % of control | dose: 200.0 mg/kg/injection, schedule: Q01DX001 (ip), vehicle: other 94 % of control | dose: 200.0 mg/kg/injection, schedule: Q04DX003 (ip), vehicle: saline 94 % of control | dose: 400.0 mg/kg/injection, schedule: Q01DX001 (ip), vehicle: other 103 % of control | dose: 400.0 mg/kg/injection, schedule: Q04DX003 (ip), vehicle: saline 87 % of control
